For assay [1], the target named is T1, RccR (PA5438) (Pseudomonas aeruginosa, UniProt Q9HTC8).
T1 construct: tetramer in crystal
The experiment in a line: isothermal titration calorimetry. Format: binding.

Assay [2] concerns the target T1, RccR (PA5438). Nature of the assay: X-ray crystal structure of the complex, […] Å. Format: binding. To be noted: space group I222, four monomers each with KDPG; PDB code not given.
In assay [3] the target is RccR (PA5438) (Pseudomonas aeruginosa, UniProt Q9HTC8, S185A). Nature of the assay: biochemical.
Chain of RccR (PA5438) (Pseudomonas aeruginosa, UniProt Q9HTC8, S185A) (Q9HTC8 whole entry S185A): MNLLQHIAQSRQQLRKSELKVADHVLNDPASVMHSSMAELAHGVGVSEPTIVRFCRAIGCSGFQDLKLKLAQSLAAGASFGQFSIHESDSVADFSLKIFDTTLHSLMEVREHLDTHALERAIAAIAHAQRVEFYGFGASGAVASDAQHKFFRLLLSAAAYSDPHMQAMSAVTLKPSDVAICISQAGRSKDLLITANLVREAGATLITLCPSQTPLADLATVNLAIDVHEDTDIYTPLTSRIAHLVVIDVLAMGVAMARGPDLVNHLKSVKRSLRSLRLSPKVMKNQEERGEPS
Assay [4] addresses RccR (PA5438) (Pseudomonas aeruginosa, UniProt Q9HTC8, S183A). The experiment in a line: biochemical.
Assay [5] deals with RccR (PA5438) (Pseudomonas aeruginosa, UniProt Q9HTC8, S188A). The experiment in a line: biochemical.
Chain of RccR (PA5438) (Pseudomonas aeruginosa, UniProt Q9HTC8, S188A) (Q9HTC8 whole entry S188A): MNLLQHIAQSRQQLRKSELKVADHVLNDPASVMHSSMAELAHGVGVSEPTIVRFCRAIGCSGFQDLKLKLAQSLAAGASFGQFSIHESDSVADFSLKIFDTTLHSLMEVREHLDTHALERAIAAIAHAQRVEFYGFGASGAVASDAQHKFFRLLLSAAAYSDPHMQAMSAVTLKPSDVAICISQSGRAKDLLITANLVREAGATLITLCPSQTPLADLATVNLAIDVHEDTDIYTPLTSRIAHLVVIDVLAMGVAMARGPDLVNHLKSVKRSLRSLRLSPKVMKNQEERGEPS

The term Kd denotes the concentration at which binding is half-saturated. Read a low Kd as a tighter complex.

T1 sequence (Q9HTC8 entry or part of it): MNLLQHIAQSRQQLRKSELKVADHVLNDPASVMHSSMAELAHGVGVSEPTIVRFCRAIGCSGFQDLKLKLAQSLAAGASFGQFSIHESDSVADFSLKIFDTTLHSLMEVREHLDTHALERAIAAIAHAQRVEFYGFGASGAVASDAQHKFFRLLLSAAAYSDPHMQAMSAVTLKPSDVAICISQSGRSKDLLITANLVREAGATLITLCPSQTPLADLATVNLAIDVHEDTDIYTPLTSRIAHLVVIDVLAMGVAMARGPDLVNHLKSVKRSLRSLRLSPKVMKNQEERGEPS
Chain of RccR (PA5438) (Pseudomonas aeruginosa, UniProt Q9HTC8, S183A) (Q9HTC8 whole entry S183A): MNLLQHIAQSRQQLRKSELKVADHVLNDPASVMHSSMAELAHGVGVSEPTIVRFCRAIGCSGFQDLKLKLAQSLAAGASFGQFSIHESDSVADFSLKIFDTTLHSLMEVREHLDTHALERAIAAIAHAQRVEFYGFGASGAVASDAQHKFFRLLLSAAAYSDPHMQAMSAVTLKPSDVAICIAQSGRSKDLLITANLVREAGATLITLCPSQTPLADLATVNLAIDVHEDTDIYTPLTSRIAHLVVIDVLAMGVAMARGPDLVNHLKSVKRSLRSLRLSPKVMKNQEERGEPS

Take `O=C(O)C(=O)C[C@H](O)[C@H](O)COP(=O)(O)O` [KDPG]: the Kd at RccR (PA5438) [1] was 3.31 µM; at RccR (PA5438) [3], 21 µM; on RccR (PA5438) [4] it was 28.7 µM; on RccR (PA5438) [5] it was 15.7 µM. For the same molecule, on RccR (PA5438) [2], the “X-ray crystal structure of the complex, 1.9 Å” value is recorded as “Each monomer in this complex structure harbors a well-defined signal molecule KDPG”.
